These results are taken from publication PMC7693880, “Preparation and Evaluation of Amino Acid Conjugates of Celecoxib as Prodrugs to Improve the Pharmacokinetic and Therapeutic Properties of Celecoxib” (Pharmaceutics, 2020).

Data set [1] can be described thus: Pharmacokinetic study after oral or intravenous administration. Conditions: rat; for increase of the absolute BA of celecoxib: 20 mg/kg. The data set is classed as in vivo, Sprague Dawley rats. The procedure: Blood samples were collected from the jugular vein using a heparinized syringe at predetermined times. Heparinized blood samples were immediately centrifuged at 6000× g for 5 min. Five-fold volume of ethyl acetate was mixed with plasma, centrifugation was performed at 6000× g for 5 min, and 1 mL of the organic solvent was evaporated. The residues were mixed with 0.1 mL of IPB and centrifuged at 20,000× g for 10 min at 4 °C. The concentration of celecoxib or N-GA1C in the samples was determined by HPLC. PK profiling was performed using PKsolver. Absolute BA and relative BA were calculated using the following equations: Absolute BA (F, %) = ((AUC0–∞)PO/dose PO)/((AUC0–∞)IV/dose IV); Relative BA (%) = ((AUC0–∞)A/dose A)/((AUC0–∞)B/dose B).

The nature of data set [2]: Drug release study in cecal contents. The data set is classed as in vitro ADME, Sprague Dawley rats. Conditions: incubation with cecal contents, after 24 h. The procedure:
Drug release study was performed with the celecoxib derivatives as described previously. Six-week-old male Sprague Dawley rats (250–260 g) were sacrificed using CO2, and a midline incision was made. The contents of the proximal small intestine, distal small intestine, and cecum, liver homogenate, or blood plasma were collected and suspended in IPB (20% (w/v)). A1C, G1C, or N-GA1C in the buffer (0.5 mL, 1 mM) was mixed with 0.5 mL of the suspension and then incubated at 37 °C under nitrogen gas. At the predetermined time points, the samples were extracted with 0.5 mL of ethyl acetate followed by centrifugation at 6000× g for 5 min. Methanol (1.0 mL) was added to the residue obtained from the evaporation of 0.1 mL of the organic layer. The solution was centrifuged at 20,000× g at 4 °C for 10 min. The concentrations of celecoxib, A1C, G1C, and N-GA1C in 20 μL of the supernatant were determined by HPLC.

Data set [3] in a line: Apparent distribution coefficient (logD6.8) measurement, 1-octanol / pH 6.8 isotonic phosphate buffer. The data set is classed as physicochemical. Conditions: 37 °C; for logD: pH 6.8, 1-octanol / pH 6.8 isotonic phosphate buffer, read-out: Log D6.8 (apparent distribution coefficient). The procedure: For this study, 1-octanol and pH 6.8 isotonic phosphate buffer (IPB) were pre-saturated with IPB and 1-octanol, respectively. 1-octanol (10 mL) was added to 500 μM of celecoxib, A1C, or N-GA1C in 10 mL IPB. The mixture was shaken for 1 h and left at 37 °C for 3 h. The concentration of celecoxib, A1C, G1C, or N-GA1C in the aqueous phase was analyzed by HPLC. The apparent partition coefficients were calculated using the equation (Co − Cw)/Cw, where Co and Cw represent the initial and equilibrium concentration of the drug in the aqueous phase, respectively.

Data set [4] relates to carrageenan-induced paw edema. The data set can be described thus: Carrageenan-induced rat paw edema model. The format is in vivo, Sprague Dawley rats. The settings on record: oral 10 mg/kg (equivalent mass of celecoxib). The procedure:
Six-week-old male Sprague Dawley rats (250–260 g) were orally administered celecoxib (10 mg/kg), A1C (equivalent mass of celecoxib), G1C (equivalent mass of celecoxib), N-GA1C (equivalent mass of celecoxib), or IPB as a control. After 1 h, 0.1 mL of carrageenan (1%) was injected into the hind paw of the rats. Carrageenan-induced increase in paw volume (paw edema) was measured at predetermined time points (0, 3, 6, 12, and 24 h). The paw volume of rats up to the knee joint was measured using a plethysmometer. The degree of inhibition of paw edema (%) at each time point was calculated using the following equation: (Control volume − treatment group volume)/Control paw volume × 100.

Where [5] appears, read: male, Sprague Dawley, plasma, IV, 10 mg/kg.

Where a name gives a salt, the structure may show the parent alone.

For `Cc1ccc(-c2cc(C(F)(F)F)nn2-c2ccc(S(=O)(=O)NC(=O)[C@@H](N)CC(=O)O)cc2)cc1` (as salt: salt) [A1C, aspart-1-yl celecoxib], the melting point lay within 134 to 137 °C.

`Cc1ccc(-c2cc(C(F)(F)F)nn2-c2ccc(S(=O)(=O)NC(=O)C(N)CCC(=O)O)cc2)cc1` (stereo not shown) (as salt: salt) [G1C, glutam-1-yl celecoxib]: the melting point was 110 to 115 °C.

As to `Cc1ccc(-c2cc(C(F)(F)F)nn2-c2ccc(S(=O)(=O)NC(=O)[C@@H](N)CC(=O)O)cc2)cc1` [A1C, aspart-1-yl celecoxib], the “increase in absolute BA” value in data set [1] (oral, 10 mg/kg, vs oral celecoxib) was “no increase”. The “increase of the absolute BA of celecoxib” value in data set [1] (oral, vs oral celecoxib) is given as “approximately two”. In data set [2], the conversion to celecoxib result is “partially converted to celecoxib”. The logD in data set [3] was determined as 0.6.

On to `Cc1ccc(-c2cc(C(F)(F)F)nn2-c2ccc(S(N)(=O)=O)cc2)cc1` [Celecoxib], for which, in data set [1] (setting [5]), the Vd amounted to 1.04 L/kg, the clearance worked out at 8.01 mL/min/kg and the half-life was 1.5 h. This molecule came in with an AUC(0-inf) in data set [1] (male, Sprague Dawley, IV, 10 mg/kg, celecoxib in plasma) of 6120 ± 520 ng·h/mL. In addition, the AUC(0-t) in data set [1] (male, Sprague Dawley, IV, 10 mg/kg, celecoxib in plasma, read-out: AUC0–24) came out at 5990 ± 440 ng·h/mL. Further, in data set [3], the logD came to 4.01. The “volume reduction of paw edema” value in data set [4] (at 6 h) is 42.06 ± 4.69%. Also, in data set [4] (at 24 h), the “volume reduction of paw edema” value is on record as 20.99 ± 2.791%.

In the case of `Cc1ccc(-c2cc(C(F)(F)F)nn2-c2ccc(S(=O)(=O)NC(=O)C(N)CCC(=O)O)cc2)cc1` (stereo not shown) [G1C, glutam-1-yl celecoxib], in data set [1] (oral, vs oral celecoxib), the “increase of the absolute BA of celecoxib” value is given as “three”. Further, the conversion to celecoxib result in data set [2] is on record as “partially converted to celecoxib”. Besides, in data set [3], the “Log D6.8 (apparent distribution coefficient)” value amounted to 0.81 and the logD was determined as 0.8.

For the molecule `Cc1ccc(-c2cc(C(F)(F)F)nn2-c2ccc(S(=O)(=O)NC(=O)C(CC(=O)O)NC(=O)CN)cc2)cc1` (stereo not shown) [N-GA1C, N-glycyl-aspart-1-yl celecoxib], in data set [1] (oral N-GA1C 10 mg/kg, for 24 h), the “plasma concentration of N-GA1C” value is on record as “not detected”. Besides, the logD in data set [3] is -0.13. Further, the figures for the “volume reduction of paw edema” value in data set [4] (at 6 h) and in data set [4] (at 24 h) were 32.42 ± 2.50% and 78.96 ± 1.56%, respectively.
